Patent US4786723A, “7-hydroxyguanine compounds, process for preparing said compounds, and anti-tumor agent containing the same” (Kanegafuchi Chemical Industry Co., Ltd., priority 1985, dated 1988)

Assays:
Acute toxicity = settings: mouse, in vivo, ip; ICR male mice weighing 18-23 g, intraperitoneally administered for one week; read-out: 50% lethal toxicity (LD50)
Experimental: ICR male mice weighing 18-23 g were intraperitoneally administered with the test compounds for one week, and the 50% lethal toxicity (LD50 : mg/kg) was measured by a conventional method.

L-1210 leukemia = assay: Anti-tumor activity against L-1210 leukemia in mice; assay type: in vivo, mouse; settings: intraperitoneal, 5 days, BDF1 female mice
Experimental: Anti-tumor activity against L-1210 leukemia in mice
BDF1 female mice weighing 18-23 g (one group: 3 mice) were used. The mice were intraperitoneally inoculated with mouse L-1210 leukemia cells (1×10^5). […] As a control, 50 mM phosphate buffer (pH 7.4) without a test compound was intraperitoneally administered likewise. Based on the data, the life-prolongation ratio of the test compound was calculated.

## Nc1nc(O)c2c(n1)n([C@@H]1O[C@H](CO)[C@@H](O)[C@H]1O)c[n+]2[O-] [Compound A, 7-hydroxyguanine riboside]
Acute toxicity
  LD50: 192 mg/kg
L-1210 leukemia; 1.0 mg/kg/day
  Life-prolongation ratio: 128.9
L-1210 leukemia; 4.0 mg/kg/day
  Life-prolongation ratio: 148.2
L-1210 leukemia; 16.0 mg/kg/day
  Life-prolongation ratio: 148.2

## Nc1nc(O)c2c(n1)n([C@H]1C[C@H](O)[C@@H](CO)O1)c[n+]2[O-] [Compound B, 7-hydroxyguanine deoxyriboside]
Acute toxicity
  LD50: 172 mg/kg
L-1210 leukemia; 1.0 mg/kg/day
  Life-prolongation ratio: 120.5
L-1210 leukemia; 4.0 mg/kg/day
  Life-prolongation ratio: 160.2
L-1210 leukemia; 16.0 mg/kg/day
  Life-prolongation ratio: 168.7
